Values joined by “and” are separate entries in the source; they are usually repeats but may differ in a detail not shown here. Equal entries are not always repeated.
Experiments:
[1] = tested on: four-vessel occlusion model of rats; test: Morris water maze Hidden test in four-vessel occlusion model; format: in vivo, rat; details: for Hidden test Latency / Hidden test Total distance moved: 4-VO rats; for Hidden test Latency / Hidden test Total distance moved / Time to reach the platform in the Hidden test, in words / Total distance moved in the Hidden test, in words: oral 28 d: arundic acid 30, taltirelin 10, combination 10+3 mg/kg/day; for Hidden test, At the time of grouping Latency: before administration, 1 week after 4-VO; for Time to reach the platform in the Hidden test, in words / Total distance moved in the Hidden test, in words: vs Group 2 control
Experimental: A Morris water maze test was performed by using a circular pool (168 cm in diameter and 40 cm in depth) filled with water, and a platform (10 cm in diameter and 30 cm in height) for escape of rats. In Zone 3, one transparent plastic escape platform (10 cm in diameter and 30 cm in height) was set at a location 40 cm away from the center of the pool, and […] away from the periphery of the pool. The water temperature of the water maze during the experiment was kept at 23° C. (±1.5° C.). A Hidden test was performed at the time of grouping 1 week after four-vessel occlusion, and on the day following the final administration of test drugs. For the Hidden test, the pool was filled with water to a height of 1 cm above the platform (water depth: 31 cm). A Transfer test was performed 3 days after the final administration of test drugs. For the Transfer test, the platform was removed, and the pool was filled with water to a water depth of 31 cm. To enable the rats to memorize surrounding various spatial arrangements, cues, such as posters and photographs, were placed on the wall. The cues always remained at the same locations during the experiment (FIG. 1: a plan view of Morris water maze, and the laboratory layout).
3) One week after restoration of blood flow, 5 trials of the Hidden test according to the Morris water maze test were performed with intervals of 30 minutes, and a cut-off time of 180 seconds. The rats were grouped by using swimming escape latency (time to reach the platform) as an index. After grouping, oral administration of the drug(s) was started. 4) The drug(s) were orally administered for 28 days. 5) On the day following the final administration of the drug, 5 trials of the Hidden Test for assessing spatial memory by using a water maze were performed with intervals of 30 minutes, and a cut-off time of 180 seconds. After 30 minutes, the platform was removed, and a Transfer test was performed with the pool being filled with water to a water depth of 31 cm.
From the starting point in Zone 1, the rats were thrown into a water maze with their heads being directed toward the outside of the water maze. The location of the platform was fixed at a point (corresponding to E in FIG. 1) on the east side in the water maze (corresponding to Zone 3 in FIG. 1). The maximum time of one trial was 180 seconds. When a rat reached the platform within 180 seconds, the rat was allowed to stand on the platform for 15 seconds. […] This rat was expected to learn the location of the platform by using surrounding various spatial arrangements as cues during the 180 seconds of the Hidden test and 15 seconds of being allowed to stand on the platform (Hidden test). In the Hidden test, swimming trajectory to the goal, swimming distance, swimming escape latency (time to reach the platform), and average swimming speed were measured per trial.
The behaviors of the rats in each trial were automatically analyzed with a CCD camera and the SMART (produced by Kyoto L Giken) behavioral analysis program by binarization of the white color of rats' fur and black ash color of the surrounding area.
Significant differences between the groups in spatial memory according to the Morris water maze method were determined by the nonparametric Dunnett's multiple comparison test. 6) After completion of the Morris water maze test, the brain of each rat was perfusion-fixed with 4% paraformaldehyde. The details are as follows.

[2] = tested on: four-vessel occlusion model of rats; test: Morris water maze Transfer test in four-vessel occlusion model; format: in vivo, rat; details: 4-VO rats, oral 28 d: arundic acid 30, taltirelin 10, combination 10+3 mg/kg/day; for Residence time in Zone 3: Table 6
Experimental: The water temperature of the water maze during the experiment was kept at 23° C. […] A Transfer test was performed 3 days after the final administration of test drugs. For the Transfer test, the platform was removed, and the pool was filled with water to a water depth of 31 cm. To enable the rats to memorize surrounding various spatial arrangements, cues, such as posters and photographs, were placed on the wall. The cues always remained at the same locations during the experiment (FIG. 1: a plan view of Morris water maze, and the laboratory layout). Three days after the final administration of the test drug, the platform was removed and a Transfer test in which the pool was filled with water to a water depth of 31 cm was performed. […] Each rat was given only one trial, and the time was 180 seconds. The starting point was on the side opposite to the platform (see FIG. 1). In the Transfer test, the time spent in each Zone and the number of times the rats crossed over the platform location were determined. The behaviors of the rats in each trial were automatically analyzed with a CCD camera and the SMART (produced by Kyoto […]) behavioral analysis program by binarization of the white color of rats' fur and black ash color of the surrounding area. Significant differences between the groups in spatial memory according to the Morris water maze method were determined by the nonparametric Dunnett's multiple comparison test. 6) After completion of the Morris water maze test, the brain of each rat was perfusion-fixed with 4% paraformaldehyde. The details are as follows.

CN1C(=O)C[C@@H](C(=O)N[C@@H](Cc2c[nH]cn2)C(=O)N2CCC[C@H]2C(N)=O)NC1=O [Taltirelin, N-[(4S)-1-methyl-2,6-dioxohexahydropyrimidine-4-carbonyl]-L-histidyl-L-prolinamide]
Hidden test Latency ([1]; Mean ± S.E.): 83 ± 6.6 s
Hidden test Total distance moved ([1]; Mean ± S.E.): 16.1 ± 1.6 m
Hidden test, At the time of grouping Latency ([1]; Mean ± S.E.): 102 ± 8.3 s
Hidden test Latency ([1]; individual rat, 3 mg/kg/day): 68.9 s and 88.1 s and 76.4 s and 99.1 s
Hidden test Total distance moved ([1]; individual rat, 3 mg/kg/day): 19.8 m and 15.0 m and 12.3 m and 17.1 m
Hidden test, At the time of grouping Latency ([1]; individual rat): 100.1 s and 97.2 s and 85.5 s and 124.8 s
Time to reach the platform in the Hidden test, in words [1]: no improvement in time to reach the platform
Total distance moved in the Hidden test, in words [1]: not considered to be significantly improved
Residence time in Zone 1 ([2]; Mean ± S.E.): 39.3 ± 5.4 s
Residence time in Zone 1 (%) ([2]; Mean ± S.E.): 21.7 ± 3.0%
Residence time in Zone 2 ([2]; Mean ± S.E.): 34.2 ± 10.3 s
Residence time in Zone 2 (%) ([2]; Mean ± S.E.): 19.0 ± 5.8%
Residence time in Zone 3 (%) ([2]; Mean ± S.E.): 31.6 ± 2.4%
Residence time in Zone 4 ([2]; Mean ± S.E.): 50.2 ± 8.5 s
Residence time in Zone 4 (%) ([2]; Mean ± S.E.): 27.6 ± 4.6%
Transfer test Platform Crossing Times ([2]; Mean ± S.E.): 5.3 ± 1.4
Transfer test Residence time in Zone 3 ([2]; Mean ± S.E.): 57 ± 4.1 s
Residence time in Zone 3 ([2]; Mean ± S.E.): 57.1 ± 4.1 s
Residence time in Zone 3 ([2]; individual rat, 3 mg/kg/day): 58.5 s and 66.9 s and 47.1 s and 56 s
Residence time in Zone 1 ([2]; individual rat, 3 mg/kg/day): 24.5 s and 44.4 s and 38.6 s and 49.7 s
Residence time in Zone 1 (%) ([2]; individual rat, 3 mg/kg/day): 13.6% and 24.8% and 21.2% and 27.3%
Residence time in Zone 2 ([2]; individual rat, 3 mg/kg/day): 63 s and 30.4 s and 29.6 s and 14.1 s
Residence time in Zone 2 (%) ([2]; individual rat, 3 mg/kg/day): 35.1% and 17.0% and 16.2% and 7.7%
Residence time in Zone 3 (%) ([2]; individual rat, 3 mg/kg/day): 32.6% and 37.3% and 25.8% and 30.7%
Residence time in Zone 4 ([2]; individual rat, 3 mg/kg/day): 33.6 s and 37.5 s and 67 s and 62.5 s
Residence time in Zone 4 (%) ([2]; individual rat, 3 mg/kg/day): 18.7% and 20.9% and 36.8% and 34.3%
Transfer test Platform Crossing Times ([2]; individual rat, 3 mg/kg/day): 8 and 7 and 4 and 2

CCCCCC[C@@H](CCC)C(=O)O [Arundic acid, (R)-(−)-2-propyloctanoic acid]
Hidden test Latency ([1]; Mean ± S.E.): 78 ± 5.2 s
Hidden test Total distance moved ([1]; Mean ± S.E.): 17.4 ± 2.1 m
Hidden test, At the time of grouping Latency ([1]; Mean ± S.E.): 102 ± 9.2 s
Hidden test Latency ([1]; individual rat, 3 mg/kg/day): 73.8 s and 82.2 s and 90.3 s and 66.5 s
Hidden test Total distance moved ([1]; individual rat, 3 mg/kg/day): 13.0 m and 15.8 m and 17.9 m and 22.8 m
Hidden test, At the time of grouping Latency ([1]; individual rat): 112.5 s and 86.9 s and 123.2 s and 87 s
Spatial learning capacity and spatial memory capacity in the Morris water maze test, in words ([1]; oral 28 d: arundic acid 30, combination 10+3 mg/kg/day): did not affect spatial learning capacity and spatial memory capacity
Time to reach the platform in the Hidden test, in words [1]: no improvement in time to reach the platform
Total distance moved in the Hidden test, in words [1]: not considered to be significantly improved
Residence time in Zone 1 ([2]; Mean ± S.E.): 41.6 ± 8.7 s
Residence time in Zone 1 (%) ([2]; Mean ± S.E.): 22.8 ± 4.3%
Residence time in Zone 2 ([2]; Mean ± S.E.): 42.0 ± 10.9 s
Residence time in Zone 2 (%) ([2]; Mean ± S.E.): 23.0 ± 5.5%
Residence time in Zone 3 (%) ([2]; Mean ± S.E.): 34.6 ± 5.1%
Residence time in Zone 4 ([2]; Mean ± S.E.): 34.9 ± 83 s
Residence time in Zone 4 (%) ([2]; Mean ± S.E.): 19.6 ± 4.7%
Transfer test Platform Crossing Times ([2]; Mean ± S.E.): 5.5 ± 1.4
Transfer test Residence time in Zone 3 ([2]; Mean ± S.E.): 62 ± 8.4 s
Residence time in Zone 3 ([2]; Mean ± S.E.): 61.9 ± 8.4 s
Residence time in Zone 3 ([2]; individual rat, 3 mg/kg/day): 82.9 s and 66.0 s and 43.6 s and 55.2 s
Residence time in Zone 1 ([2]; individual rat, 3 mg/kg/day): 24.0 s and 32.5 s and 63.9 s and 45.8 s
Residence time in Zone 1 (%) ([2]; individual rat, 3 mg/kg/day): 13.3% and 19.3% and 33.3% and 25.4%
Residence time in Zone 2 ([2]; individual rat, 3 mg/kg/day): 16.9 s and 34.4 s and 68.2 s and 48.3 s
Residence time in Zone 2 (%) ([2]; individual rat, 3 mg/kg/day): 9.4% and 20.4% and 35.5% and 26.8%
Residence time in Zone 3 (%) ([2]; individual rat, 3 mg/kg/day): 46.0% and 39.1% and 22.7% and 30.6%
Residence time in Zone 4 ([2]; individual rat, 3 mg/kg/day): 56.5 s and 35.7 s and 16.4 s and 31.0 s
Residence time in Zone 4 (%) ([2]; individual rat, 3 mg/kg/day): 31.3% and 21.2% and 8.5% and 17.2%
Transfer test Platform Crossing Times ([2]; individual rat, 3 mg/kg/day): 6 and 9 and 2 and 5

From patent publication US10828303B2, “Composition comprising combination of TRH analog with arundic acid, and pharmaceutically acceptable salt of arundic acid” (Brivention Pharmaceutical (Shanghai) Inc., priority 2016, dated 2020)
